Here are results for 16 compounds from paper PMC5155426, “Organic Redox Species in Aqueous Flow Batteries: Redox Potentials, Chemical Stability and Solubility” (Scientific Reports, 2016).

Converted amounts (≈) assume the structure as drawn. “And” between values parts separate entries of the source, which are not always exact repeats. Identical values can stand only once. Some results are limits rather than exact numbers.

Data set [1] in a line: Cyclic voltammetry: formal redox potential, peak current ratio, electrochemical reversibility. It is filed as physicochemical. The following applies: for formal redox potential E0': midpoint of CV peak potentials; for pH dependence (slope) of E0': pH 0 to pH 13; for change of E0' from acidic (pH 0) to alkaline (pH 13): 13 pH units. The protocol: The investigated compounds were used as-purchased and without any purification. […] For each series of CVs, a freshly polished electrode was used. The CVs for soluble compounds in 1 mM concentration were recorded in a glass beaker with a customized lid in nitrogen purged solutions of three different pHs, namely pH 0 (1 M H2SO4), pH 7 (0.5 M phosphate buffer) and pH 13 (1 M NaOH). The pH of the NaOH solution is taken as 13 to account for carbonization of the solution with exposure to air. A background CV was recorded before each CV experiment to exclude background contaminations. The CVs of insoluble compounds in 1 M H2SO4, or 0.5 M phosphate buffer were recorded as follows: 6 mL of the supporting electrolyte was mixed with approximately 4 mL of acetone, and then a small amount of the quinone was added so that its concentration was around 1 mM.
Each CV was analyzed in terms of peak potentials and peak currents. Peak currents were determined by subtracting a polynomial fit of the background from the recorded current as exemplified in Supplementary, S1. A plot of the absolute values of the peak currents to the square root of the scan rate was constructed and, when reasonable, a linear fit included to evaluate the electrochemical (Nernstian) reversibility of the electrochemical reaction. The peak current Ip for reversible reactions are given by equation (1).
Where F is the Faraday constant, R the gas constant, T the temperature, n the number of electron transferred, A the area of the electrode, DOthe diffusion coefficient and CO^*the bulk concentration of the analyte and v the scan rate. The peak current ratio is expected to be close to one for reversible species. The formal redox potential (E^0’), which is the adjusted form of the standard redox potential, where effects of the medium is taken into account, is reported here as the midpoint potential between the two peak potentials in the CV[24]. All half-cell potentials in this work refer to the normal hydrogen electrode (VNHE).

Data set [2] can be described thus: Aqueous solubility estimation (OECD test #105) in 1 M supporting electrolytes. The protocol:
After each addition the test tube was ultrasonicated and/or shaken vigorously using a Vortex Generator for at least 10 minutes at room temperature. Then the tube was inspected visually for undissolved sample and the addition of supporting electrolyte solution continued until the sample seemed just dissolved. The volumes just before and after full dissolution are used for calculating the solubility interval (Supplementary, S4 and S5) and the solubility is estimated as the average between the two.

[3] abbreviates: pH 0 (1 M H2SO4), about 1 mM, acetone added for insoluble compounds.
Where [4] appears, read: 1 M H2SO4 supporting electrolyte prepared from MilliQ water, aqueous buffer, thermodynamic from solid, Solubility, 1 M H2SO4, room temperature, interval just after / before full dissolution.
[5] abbreviates: 1 M KCl supporting electrolyte prepared from MilliQ water, saline or isotonic, thermodynamic from solid, Solubility, 1 M KCl, room temperature.
The mark [6] stands for this setting: 1 M KOH supporting electrolyte prepared from MilliQ water, aqueous buffer, thermodynamic from solid, Solubility, 1 M KOH, room temperature.

A word on the solubility: it is the dissolved amount per volume that the medium holds. Take `O=C1c2c(O)ccc(O)c2C(=O)c2c(O)ccc(O)c21` [AQTH(1,4), 1,4,5,8-tetrahydroxy-9,10-anthraquinone]: the “E0' more negative compared to AQDH(1,4)” value in data set [1] (alkaline) is given as “approximately 100 mV”. For the same compound, in data set [1] (setting [3]), the “formal redox potential E0'” value is recorded as 0.200(4) VNHE. The Electrochemical reversibility result in data set [1] (pH 13) was “Reversible”. Moreover, in data set [1] (pH 13), the Peak current ratio was 1.2(1). Moreover, the solubility in data set [2] (setting [4]) and in data set [2] (setting [5]) was less than 10 mM in each case. Besides, in data set [2] (alkaline), the “solubility compared to AQDH(1,4)” value is listed as “only half the solubility”.

As to `O=C1C=C(O)C(=O)C=C1O` [BQ(1,4)DH, 2,5-dihydroxy-1,4-benzoquinone], the Peak current ratio in data set [1] (pH 0) is listed as 0.87(4); in data set [1] (pH 7), 1.1(2); in data set [1] (pH 13), 0.8(1). Further, the “reduction of E0' compared to the parent BQ compound” value in data set [1] (pH 0) is 300 mV. For the same compound, the “formal redox potential E0'” value in data set [1] (setting [3]) is 0.382(4) VNHE and 0.38 VNHE. Besides, the “pH dependence (slope) of E0'” value in data set [1] is given as approximately −90 mV/pH unit. In addition, the Electrochemical reversibility entry in data set [1] (pH not specified) is listed as “Quasireversible”. Further, the solubility in data set [2] (setting [4]) and in data set [2] (setting [5]) was less than 10 mM each time.

Turning to `O=S(=O)([O-])c1cc(O)ccc1O.[K+]` [HQ(1,4)S, 2,5-dihydroxybenzenesulfonate potassium], the “formal redox potential E0'” value is on record as 0.664(8) VNHE in data set [1] (setting [3]), 0.471(4) VNHE in data set [1] (pH 7 (0.5 M phosphate buffer)) and -0.07(1) VNHE in data set [1] (pH 13 (1 M NaOH)). In data set [1] (pH not specified), the Electrochemical reversibility entry is “Quasireversible”.

For the compound `c1ccc2nc3ccccc3nc2c1` [Phenazine], the “formal redox potential E0'” value in data set [1] (setting [3]) is on record as 0.403(3) VNHE; in data set [1] (pH 7 (0.5 M phosphate buffer)) it was “Unstable”; in data set [1] (pH 13 (1 M NaOH)) it was “Unstable”. Moreover, the solubility was less than 10 mM in data set [2]; 10 mM (≈ 1800 µg/mL) in data set [2] (aqueous buffer, thermodynamic from solid, Solubility); less than 10 mM in data set [2] (saline or isotonic, thermodynamic from solid, Solubility).

On to `Nc1c(S(=O)(=O)[O-])cc(Br)c2c1C(=O)c1ccccc1C2=O.[Na+]` [AQS(2)NBr, 1-amino-4-bromo-9,10-anthraquinone-2-sulfonate sodium], for which the “formal redox potential E0'” value in data set [1] (setting [3]) is listed as 0.14(4) VNHE. Besides, the Electrochemical reversibility result in data set [1] (pH not specified) is on record as “Quasireversible”.

With `O=C1c2cccc(O)c2C(=O)c2cccc(O)c21` [AQDH(1,5), 1,5-dihydroxy-9,10-anthraquinone], in data set [1] (pH 13), the Electrochemical reversibility entry is recorded as “Quasireversible” and the Peak current ratio is listed as 0.79(9). For the same compound, the solubility in data set [2] (setting [4]) was less than 10 mM. Moreover, in data set [2] (setting [5]), the solubility is less than 10 mM.

Turning to `c1cnccn1` [Pyrazine, 1,4-diazine], the “formal redox potential E0'” value in data set [1] (setting [3]) is reported as -0.013(2) VNHE; in data set [1] (pH 7 (0.5 M phosphate buffer)) it was “Unstable”; in data set [1] (pH 13 (1 M NaOH)) it was “Unstable”. Besides, the solubility in data set [2] (setting [4]), in data set [2] (setting [5]) and in data set [2] (setting [6]) was approximately 7000 mM (≈ 561000 µg/mL) each time.

Turning to `O=C1C(O)=C(O)C(=O)C(O)=C1O` [BQ(1,4)TH, Tetrahydroxy-1,4-benzoquinone], the “formal redox potential E0'” value in data set [1] (setting [3]) worked out at 0.28 VNHE. The Electrochemical reversibility result in data set [1] (pH 6.2) is reported as “Quasireversible”; in data set [1] (pH 13), “Quasireversible”; in data set [1] (pH not specified), “completely loses its electrochemical activity”. Moreover, the solubility in data set [2] (setting [4]), in data set [2] (setting [5]) and in data set [2] (setting [6]) was less than 10 mM throughout.

On to `O=C1C(O)=C(Cl)C(=O)C(O)=C1Cl` [BQ(1,4)DHDCl, 2,5-dichloro-3,6-1,4-benzoquinone], for which the “change of E0' from acidic (pH 0) to alkaline (pH 13)” value in data set [1] is reported as 0.99 V. For the same compound, the Electrochemical reversibility entry is given as “Reversible” in data set [1] (pH 0), “Quasireversble” in data set [1] (pH 7) and “Quasireversble” in data set [1] (pH 13). Besides, the Peak current ratio is recorded as 1.3(1) in data set [1] (pH 0), 1.2(4) in data set [1] (pH 7) and 0.8(2) in data set [1] (pH 13). Moreover, the “formal redox potential E0'” value in data set [1] (setting [3]) is 0.394(1) VNHE. Further, the “pH dependence (slope) of E0'” value in data set [1] was −76 mV/pH unit. In addition, the solubility in data set [2] (setting [4]) is less than 10 mM; in data set [2] (setting [5]), 10 mM (≈ 2090 µg/mL); in data set [2] (setting [6]) it was less than 10 mM. Further, the “aqueous solubility, qualitative” value in data set [2] (water / supporting electrolytes as worded) is on record as “insoluble in water”.

Consider `Oc1ccc(O)cc1` [HQ(1,4), Para hydroquinone], for which the Electrochemical reversibility entry in data set [1] (pH 0) and in data set [1] (pH 7) was “Quasireversible” in each case. The Peak current ratio in data set [1] (pH 0) is recorded as 2.3(1); in data set [1] (pH 7) it was 1.2(3). The “formal redox potential E0'” value was 0.669(5) VNHE in data set [1] (setting [3]), 0.433(7) VNHE in data set [1] (pH 7 (0.5 M phosphate buffer)) and 0.11(1) VNHE in data set [1] (pH 13 (1 M NaOH)).

As to `Cc1cc(O)c2c(c1)C(=O)c1cc(O)cc(O)c1C2=O` [AQTrHM, 1,3,8-trihydroxy-6-methylanthracene-9,10-dione], the Peak current ratio in data set [1] (pH 0) is 0.15(4); in data set [1] (pH 7), 0.19(6); in data set [1] (pH 13) it was 0.2(2). Besides, the “formal redox potential E0'” value was -0.04(1) VNHE in data set [1] (setting [3]), -0.386(2) VNHE in data set [1] (pH 7 (0.5 M phosphate buffer)) and -0.63(1) VNHE in data set [1] (pH 13 (1 M NaOH)). Also, the Electrochemical reversibility result in data set [1] (pH not specified) is “Reversible”. The solubility in data set [2] (setting [4]) and in data set [2] (setting [5]) was less than 10 mM each time.

As to `O=C1C=C(O)C(=O)c2ccccc21` [NQ(1,4)H, 2-hydroxy-1,4-naphtoquinone], the “change of E0' from acidic (pH 0) to alkaline (pH 13)” value in data set [1] was determined as 0.8 V. Moreover, the values for the Peak current ratio in data set [1] (pH 0), in data set [1] (pH 7) and in data set [1] (pH 13) were 0.81(8), 1.2(3) and 0.73(6), respectively. Besides, in data set [1] (setting [3]), the “formal redox potential E0'” value is listed as 0.308(4) VNHE. Besides, the “pH dependence (slope) of E0'” value in data set [1] was found to be 67 mV/pH unit. Moreover, the figures for the Electrochemical reversibility result in data set [1] (pH 13) and in data set [1] (pH not specified) were “seemingly reversible” and “Quasireversible”, respectively. The solubility in data set [2] (setting [4]) is less than 10 mM; in data set [2] (setting [5]), less than 10 mM; in data set [2] (setting [6]) it was 820 mM (≈ 143000 µg/mL).

Turning to `O=C1C=CC(=O)C=C1` [para-BQ], the “pH dependence (slope) of E0'” value in data set [1] is reported as −45 mV/pH unit. The “formal redox potential E0'” value in data set [1] (pH 13 (1 M NaOH)) is 0.11 VNHE.

Consider `Oc1ccccc1O` [HQ(1,2), Ortho hydroquinone], for which the Electrochemical reversibility result in data set [1] (pH 0) is “Quasireversible”; in data set [1] (pH 7), “Quasireversible”; in data set [1] (pH 13), “Irreversible”.

With `O=C1C=C(S(=O)(=O)O)c2ccccc2C1=O` [NQ(1,2)S, 1,2-naphtoquinone-4-sulfonate sodium], the figures for the Peak current ratio in data set [1] (pH 0), in data set [1] (pH 7) and in data set [1] (pH 13) were 0.8(1), 0.52(3) and 0.9(1), respectively. Besides, the entries for the “formal redox potential E0'” value in data set [1] (setting [3]) and in data set [1] (pH 7 (0.5 M phosphate buffer)) were 0.55(1) VNHE and 0.24(1) VNHE, respectively. Further, the Electrochemical reversibility entry in data set [1] (pH not specified) is reported as “Quasireversible”. Further, the solubility in data set [2] (setting [5]) is approximately 10 mM; in data set [2] (setting [6]), 900 mM.

Consider `O=S(=O)(O)c1cc(O)c(O)c(S(=O)(=O)O)c1` [HQ(1,2)DS, 4,5-dihydroxy-1,3-benzenedisulfonate disodium monohydrate], for which the reduction/oxidation peak ratio result in data set [1] (all pH values) is “significantly low”. For the same compound, the Peak current ratio in data set [1] (pH 0) is given as 0.4(1). Further, the “formal redox potential E0'” value in data set [1] (setting [3]) is 0.86(3) VNHE; in data set [1] (pH 7 (0.5 M phosphate buffer)), 0.7 VNHE. In addition, the Electrochemical reversibility result in data set [1] (pH not specified) is reported as “Quasireversible”. In data set [1] (two sulfonate groups), the “increase of E0' relative to ortho-BQ” value was found to be 50 mV.
